Patent US20250369863A1, “METHOD FOR DETERMINING A STATUS OF A CO-CULTURE” (Universiteit Antwerpen, priority 2022, published 2025)

Test system: co-culture of patient-derived pancreatic tumor organoids (TCO) and cancer associated fibroblast (SCT)
Assay: co-culture of patient-derived pancreatic tumor organoids and cancer associated fibroblasts, stroma parameters from fluorescent images
Format: cell-based
Details: for stroma growth rate (normalized stromal growth rate): FIG. 5, FGF2 10 ng/ml; for stroma growth rate (normalized stromal growth rate) / stromal density of the micro-tumor / contractility: Nintedanib 0.5 μM; for stroma growth rate (normalized stromal growth rate) / stromal density of the micro-tumor: TGF-B 5 ng/ml; for stroma size (area): FIG. 6; for stroma size (area) / stromal size ratio: dynamic (over time) kinetic quantification; for stromal size ratio: FIG. 9; for stromal density of the micro-tumor: FIG. 10, static endpoint, compared to the control; for stromal density of the micro-tumor / contractility: FGF2 10 ng/mL; for contractility: FIGS. 7 and 8
Experimental: A co-culture was prepared of patient-derived pancreatic tumor organoids (TCO) and cancer associated fibroblast (SCT), wherein the TCO and the SCT were fluorescently labelled with the first and second fluorescent label respectively. First and second fluorescent images were recorded and the status of the sample was determined with and without contacting the sample with Nintedanib, TGFB or FGF2. Nintedanib is a known anti-fibrotic drug that inhibits fibroblast proliferation and motility. TGFB and FGF2 are growth factors that can stimulate fibroblast proliferation.

## COC(=O)c1ccc2c(c1)NC(=O)/C2=C(\Nc1ccc(N(C)C(=O)CN2CCN(C)CC2)cc1)c1ccccc1 [nintedanib, Nintedanib]
  micro-tumor formation driven by activated fibroblasts: inhibited
  stroma growth rate (normalized stromal growth rate): inhibited
  stroma size (area): inhibited
  stromal size ratio: reduced
  stromal density of the micro-tumor: reduced
  contractility: lack of contractility
Listed as Nintedanib
  stromal size ratio: inhibitory effect
Shown by contractility, stromal size ratio and stromal density (FIGS. 7 to 10)
  motility: inhibited

## FGF2: growth factor that can stimulate fibroblast proliferation
  stroma growth rate (normalized stromal growth rate): stimulated the strongest
  stroma size (area): stimulated the strongest
  stromal density of the micro-tumor: only had marginal effects
  contractility: have been contracted together

## TGFB
  stromal density of the micro-tumor: only had marginal effects
